Where no end group is shown, it is not given here.
Assays:
[1] = cited from earlier work
Description: (§1) The most serious drawback, which currently precludes the use of this approach, is poor delivery of the oligonucleotides into bacterial cells. The bacterial cell wall prevents the efficient uptake of short oligonucleotides from the environment[14] and non-invasive delivery of PNAs is extremely difficult. To overcome this problem, chemical conjugation of PNA to a variety of cell-penetrating peptides has been tested, [15], [16]. The most commonly used conjugate of PNA with the peptide (KFF)3K was delivered with high efficiency in vitro. However, the activity of (KFF)3K-PNA conjugates was drama ...

[2] = test system: some mammalian cells; conditions: cited from earlier work
Description: as §1

[3] = test system: mRNA of the reporter gene mrfp1 expressing Red Fluorescent Protein; assay: Inhibition of RFP synthesis (red fluorescence) in E. coli carrying pBBR(rfp); assay type: cell-based, Escherichia coli K-12 MG1655; conditions: overnight treatment, 0–16 µM
Protocol: E. coli TG1[58] was used for plasmid construction. For triparental mating, E. coli DH5α carried the helper plasmid pRK2013[59] and E. coli S17-1[60] was the mrfp1 plasmid donor. E. coli K-12 MG1655[61], and Salmonella enterica subsp. enterica serovar Typhimurium LT2-R (rifampicin resistant mutant of wild-type S. Typhimurium LT2[62]) were used in PNA delivery experiments. To prepare inocula, all strains were grown overnight in lysogeny broth (LB) at 37 °C with shaking. […] Cultures were supplemented with appropriate antibiotics to prevent plasmid loss.
The effect of the different PNA conjugates and controls on the red fluorescence of bacterial cells was determined using a standard microdilution method[67] in concentration range 0–16 µM. […] Following overnight incubation at 37 °C with shaking, the plates were vigorously shaken (double orbital) for 10 sec and then the cell density (OD600) and fluorescence (λ excitation – 584 nm; λ emission – 610 nm) were measured using a plate reader (Microplate Reader Biotek Synergy H1MFDG). The cell suspensions were also examined by light and fluorescence microscopy using a Nikon Eclipse Ni-U microscope (Figure S1).
To obtain relative fluorescence values (RFU), the background media noise was subtracted from each data point for both cell density (OD600) and fluorescence. […]

[4] = test system: E. coli; assay: Effect on bacterial growth (OD600) of E. coli; assay type: cell-based, Escherichia coli; conditions: up to the tested 16 μM concentrations
Protocol: (§2) The effect of the different PNA conjugates and controls on the red fluorescence of bacterial cells was determined using a standard microdilution method[67] in concentration range 0–16 µM. Cultures grown to exponential phase in Davis Minimal Broth were diluted to ~5 × 10^5 CFU/ml. These cell suspensions were added to wells of sterile 96-well plates containing different concentrations of the tested compounds. Following overnight incubation at 37 °C with shaking, the plates were vigorously shaken (double orbital) for 10 sec and then the cell density (OD600) and fluorescence (λ excitation – 584 nm; λ emission – 610 nm) were measured using a plate reader (Microplate Reader Biotek Synergy H1MFDG). The cell suspensions were also examined by light and fluorescence microscopy using a Nikon Eclipse Ni-U microscope (Figure S1).

[5] = test system: S. Typhimurium; assay: Effect on bacterial growth (OD600) of S. Typhimurium; assay type: cell-based, Salmonella Typhimurium; conditions: up to the tested 16 μM concentrations
Protocol: as §2

[6] = cited from earlier work; remark: listed apart in the source
Protocol: There was no decrease in OD600 upon overnight treatment with the conjugates (up to the tested 16 μM concentrations). Free vitamin B12 has no antibacterial activity at concentrations up to 100 μg/ml[52].

Row | Substance | concentration with hemolytic activity [1] [ng/mL] | histamine release [2] | inhibition of RFP synthesis / mrfp1 expression (in words) [3] | bacterial growth, OD600 after overnight incubation [4] | bacterial growth, OD600 after overnight incubation [5] | concentration without antibacterial activity [6] [µg/mL]
1 | KFFKFFKFFK-NH2 [(KFF)3K only] | 40000 | initiates histamine release | – | – | – | –
2 | cyanocobalamin [vitamin B12] | – | – | Neither B12–(CH2)12-PNA(scrambled) (Fig. 6) nor free vitamin B12 (data not shown) had any inhibitory effect | slight increase of OD600 | slight increase of OD600 | > 100
